# Source: ChEMBL document CHEMBL1138482 (J Med Chem, 2009)
# How the values were obtained:
# [1] = Antiproliferative activity against chinese hamster PC43-10 cells expressing human reduced folate carrier after 96 hrs by celltiter-blue cell viability assay; conditions: Cricetulus griseus, PC43-10, 96 h
# [2] = Antiproliferative activity against chinese hamster MTXRII-OuaR2-4 cells expressing human reduced folate carrier after 96 hrs by celltiter-blue cell viability assay; conditions: Cricetulus griseus
# [3] = Antiproliferative activity against chinese hamster MTXRII-OuaR2-4 cells expressing human proton-coupled folate transporter after 96 hrs by celltiter-blue cell viability assay; conditions: Cricetulus griseus
# [4] = Antiproliferative activity against chinese hamster MTXRII-OuaR2-4 cells expressing empty pCDNA3.1 after 96 hrs by celltiter-blue cell viability assay; conditions: Cricetulus griseus
# [5] = Antiproliferative activity against chinese hamster RT16 cells expressing human folate receptor alpha after 96 hrs by celltiter-blue cell viability assay; conditions: Cricetulus griseus, RT16, 96 h
# [6] = Antiproliferative activity against chinese hamster RT16 cells expressing human folate receptor alpha after 96 hrs by celltiter-blue cell viability assay in presence of folic acid; conditions: Cricetulus griseus, RT16, 96 h
# [7] = Antiproliferative activity against chinese hamster D4 cells expressing human folate receptor beta after 96 hrs by celltiter-blue cell viability assay; conditions: Cricetulus griseus, D4, 96 h
# [8] = Antiproliferative activity against chinese hamster D4 cells expressing human folate receptor beta after 96 hrs by celltiter-blue cell viability assay in presence of folic acid; conditions: Cricetulus griseus, D4, 96 h
# KB [9] = assay: Antiproliferative activity against human KB cells expressing human reduced folate carrier/folate receptor alpha after 96 hrs by celltiter-blue cell viability assay in presence of folic acid
# IGROV-1 [10] = assay: Antiproliferative activity against human IGROV1 cells expressing human reduced folate carrier/folate receptor alpha after 96 hrs by celltiter-blue cell viability assay; conditions: IGROV-1, 96 h
# IGROV-1 [11] = assay: Antiproliferative activity against human IGROV1 cells expressing human reduced folate carrier/folate receptor alpha after 96 hrs by celltiter-blue cell viability assay in presence of folic acid; conditions: IGROV-1, 96 h
# [12] = target: Folate receptor alpha (Homo sapiens) (UniProt P15328); assay: Displacement of [3H]folic acid from human folate receptor alpha in chinese hamster RT16 cells assessed as relative binding affinity relative to folic acid; type: cell-based
# [13] = target: Folate receptor beta (Homo sapiens) (UniProt P14207); assay: Displacement of [3H]folic acid from human folate receptor beta in chinese hamster D4 cells assessed as relative binding affinity relative to folic acid; type: cell-based
# [14] = target: T1, Trifunctional purine biosynthetic protein adenosine-3 (Homo sapiens, UniProt P22102); assay: Inhibition of GARFTase in human KB cells assessed as inhibition of incorporation of [14C]glycine into [14C]formyl GAR after 30 mins in presence of azaserine
# T1 sequence (P22102 whole entry): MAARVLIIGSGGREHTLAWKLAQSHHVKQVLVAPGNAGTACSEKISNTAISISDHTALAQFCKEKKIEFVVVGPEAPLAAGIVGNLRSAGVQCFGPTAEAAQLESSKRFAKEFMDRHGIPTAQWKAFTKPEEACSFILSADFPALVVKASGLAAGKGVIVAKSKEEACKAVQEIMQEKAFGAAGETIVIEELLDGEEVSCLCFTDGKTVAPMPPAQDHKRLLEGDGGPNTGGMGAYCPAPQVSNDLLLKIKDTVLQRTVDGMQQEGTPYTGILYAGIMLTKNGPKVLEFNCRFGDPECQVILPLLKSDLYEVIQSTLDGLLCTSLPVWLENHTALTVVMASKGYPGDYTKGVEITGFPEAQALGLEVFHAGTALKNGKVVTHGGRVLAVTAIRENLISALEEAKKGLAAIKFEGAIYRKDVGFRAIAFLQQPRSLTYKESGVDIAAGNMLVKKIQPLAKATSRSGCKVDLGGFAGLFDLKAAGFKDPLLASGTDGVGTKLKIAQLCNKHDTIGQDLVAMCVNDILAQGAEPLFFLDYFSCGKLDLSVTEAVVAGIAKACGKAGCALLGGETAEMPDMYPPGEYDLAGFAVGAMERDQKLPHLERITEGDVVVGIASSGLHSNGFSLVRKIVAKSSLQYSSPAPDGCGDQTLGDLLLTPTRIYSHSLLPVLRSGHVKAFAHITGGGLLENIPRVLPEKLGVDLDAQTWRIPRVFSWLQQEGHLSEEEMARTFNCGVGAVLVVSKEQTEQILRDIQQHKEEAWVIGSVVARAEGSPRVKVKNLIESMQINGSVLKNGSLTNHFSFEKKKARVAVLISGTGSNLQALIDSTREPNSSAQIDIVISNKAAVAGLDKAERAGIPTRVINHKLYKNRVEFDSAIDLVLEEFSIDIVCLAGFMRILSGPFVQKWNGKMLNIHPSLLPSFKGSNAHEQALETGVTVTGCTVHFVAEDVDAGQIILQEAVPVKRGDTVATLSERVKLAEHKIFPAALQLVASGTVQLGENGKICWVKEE
# [15] = target: T2, Trifunctional purine biosynthetic protein adenosine-3 (Mus musculus, UniProt Q64737); assay: Inhibition of mouse recombinant GARFTase
# T2 sequence (Q64737 whole entry): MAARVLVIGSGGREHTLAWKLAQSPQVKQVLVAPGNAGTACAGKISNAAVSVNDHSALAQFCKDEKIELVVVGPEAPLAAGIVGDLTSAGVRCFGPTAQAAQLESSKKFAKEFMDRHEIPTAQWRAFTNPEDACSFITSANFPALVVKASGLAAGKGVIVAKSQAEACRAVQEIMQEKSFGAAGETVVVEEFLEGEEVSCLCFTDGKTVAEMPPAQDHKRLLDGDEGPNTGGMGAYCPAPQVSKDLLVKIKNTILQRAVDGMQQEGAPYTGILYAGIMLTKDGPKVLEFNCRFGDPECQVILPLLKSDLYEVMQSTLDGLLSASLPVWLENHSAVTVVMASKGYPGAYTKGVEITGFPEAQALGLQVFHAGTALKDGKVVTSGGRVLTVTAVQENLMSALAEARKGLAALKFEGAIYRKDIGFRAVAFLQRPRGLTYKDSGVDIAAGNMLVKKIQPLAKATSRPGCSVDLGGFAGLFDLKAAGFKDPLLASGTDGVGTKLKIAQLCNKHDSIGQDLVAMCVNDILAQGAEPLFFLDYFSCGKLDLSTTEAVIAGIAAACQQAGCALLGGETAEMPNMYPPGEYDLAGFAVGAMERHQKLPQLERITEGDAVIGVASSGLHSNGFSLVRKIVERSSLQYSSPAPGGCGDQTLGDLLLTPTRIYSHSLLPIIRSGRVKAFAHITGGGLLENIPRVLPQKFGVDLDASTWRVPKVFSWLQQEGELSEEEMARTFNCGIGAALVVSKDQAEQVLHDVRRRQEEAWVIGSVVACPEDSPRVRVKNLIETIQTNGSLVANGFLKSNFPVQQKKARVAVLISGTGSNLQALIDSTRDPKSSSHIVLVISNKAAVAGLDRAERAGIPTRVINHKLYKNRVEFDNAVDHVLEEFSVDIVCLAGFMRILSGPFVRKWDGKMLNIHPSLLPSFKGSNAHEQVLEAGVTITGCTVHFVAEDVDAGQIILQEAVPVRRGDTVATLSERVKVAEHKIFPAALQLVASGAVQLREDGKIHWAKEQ
# KB [16] = assay: Antiproliferative activity against human KB cells expressing human reduced folate carrier/folate receptor alpha after 96 hrs by celltiter-blue cell viability assay
# Sequence of Folate receptor beta (Homo sapiens) (P14207 17-230 limits assumed): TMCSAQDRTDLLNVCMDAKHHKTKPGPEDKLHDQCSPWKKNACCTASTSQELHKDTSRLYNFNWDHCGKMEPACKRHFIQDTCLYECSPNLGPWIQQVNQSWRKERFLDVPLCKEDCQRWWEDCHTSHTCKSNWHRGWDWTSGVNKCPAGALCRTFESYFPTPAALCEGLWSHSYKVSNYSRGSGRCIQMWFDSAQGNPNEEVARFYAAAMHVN
# Sequence of Folate receptor alpha (Homo sapiens) (P15328 25-234 limits assumed): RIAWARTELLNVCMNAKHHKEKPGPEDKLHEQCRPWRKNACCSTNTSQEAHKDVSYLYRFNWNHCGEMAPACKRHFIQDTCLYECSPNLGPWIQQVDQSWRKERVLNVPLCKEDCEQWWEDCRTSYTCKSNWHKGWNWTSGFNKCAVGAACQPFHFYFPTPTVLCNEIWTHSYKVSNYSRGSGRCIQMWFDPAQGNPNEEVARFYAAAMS
Compound,IC50 [1],IC50 [2],IC50 [3],IC50 [4],IC50 [5],IC50 [6],IC50 [7],IC50 [8],IC50 (KB [9]),IC50 (IGROV-1 [10]),IC50 (IGROV-1 [11]),relative binding affinity (RBA) [12],relative binding affinity (RBA) [13],IC50 [14],IC50 [15],IC50 (KB [16])
Nc1nc2sc(CCCCCCc3ccc(C(=O)N[C@@H](CCC(=O)O)C(=O)O)cc3)cc2c(=O)[nH]1,> 1 µM,> 1 µM,> 1 µM,> 1 µM,0.108 µM,> 1 µM,0.364 µM,> 1 µM,> 1 µM,0.334 µM,> 1 µM,> 0.8,> 0.8,0.0266 µM,,
Nc1nc2sc(CCCc3ccc(C(=O)N[C@@H](CCC(=O)O)C(=O)O)cc3)cc2c(=O)[nH]1,> 1 µM,> 1 µM,> 1 µM,> 1 µM,,> 1 µM,0.112 µM,> 1 µM,> 1 µM,,> 1 µM,> 0.8,> 0.8,,8.52 µM,
CN(Cc1cnc2nc(N)nc(N)c2n1)c1ccc(C(=O)N[C@@H](CCC(=O)O)C(=O)O)cc1,,,,,,,,,,,,0.8,,,,
Nc1nc2sc(CCCCc3ccc(C(=O)N[C@@H](CCC(=O)O)C(=O)O)cc3)cc2c(=O)[nH]1,> 1 µM,> 1 µM,> 1 µM,> 1 µM,,> 1 µM,,> 1 µM,> 1 µM,,> 1 µM,> 0.8,> 0.8,,,
Nc1nc2sc(CCc3ccc(C(=O)N[C@@H](CCC(=O)O)C(=O)O)cc3)cc2c(=O)[nH]1,> 1 µM,> 1 µM,> 1 µM,> 1 µM,> 1 µM,> 1 µM,> 1 µM,> 1 µM,> 1 µM,> 1 µM,> 1 µM,0.25,< 0.01,0.0323 µM,> 20 µM,> 1 µM
Nc1nc2sc(CCCCCc3ccc(C(=O)N[C@@H](CCC(=O)O)C(=O)O)cc3)cc2c(=O)[nH]1,> 1 µM,> 1 µM,> 1 µM,> 1 µM,,> 1 µM,,> 1 µM,> 1 µM,,> 1 µM,> 0.8,> 0.8,0.0236 µM,,0.132 µM
Nc1nc2sc(CCCCCCCc3ccc(C(=O)N[C@@H](CCC(=O)O)C(=O)O)cc3)cc2c(=O)[nH]1,> 1 µM,> 1 µM,> 1 µM,> 1 µM,> 1 µM,> 1 µM,> 1 µM,> 1 µM,> 1 µM,> 1 µM,> 1 µM,> 0.8,> 0.8,,,> 1 µM
Nc1nc2sc(CCCCCCCCc3ccc(C(=O)N[C@@H](CCC(=O)O)C(=O)O)cc3)cc2c(=O)[nH]1,> 1 µM,> 1 µM,> 1 µM,> 1 µM,> 1 µM,> 1 µM,> 1 µM,> 1 µM,> 1 µM,> 1 µM,> 1 µM,> 0.8,> 0.8,,,> 1 µM
